# Experimental data taken from ChEMBL document CHEMBL4396872, “Pharmacokinetics-Driven Optimization of 4(3 H)-Pyrimidinones as Phosphodiesterase Type 5 Inhibitors Leading to TPN171, a Clinical Candidate for the Treatment of Pulmonary Arterial Hypertension” (J Med Chem, 2019).
# Activity calls are given as the source filed them. No cut-off for these calls is given here.
# How the values were obtained:
# Homo sapiens = species: Homo sapiens; assay: Selectivity ratio of IC50 for N-terminal GST-tagged human PDE6C to IC50 for N-terminal GST-tagged human PDE5A1
# Rattus norvegicus [1] = assay: Antihypertensive activity in spontaneously hypertensive rat assessed as reduction in mean arterial pressure at 20 mg/kg administered via single gavage measured up to 24 hrs; type: functional, organism-based
# [2] = Metabolic stability in human liver microsomes assessed as parent compound remaining at 1 uM in presence of NADPH after 30 mins by LC-MS/MS analysis; type: ADME, Microsome; conditions: read-out: Stability
# Phosphodiesterase 1 = Phosphodiesterase 1 (Homo sapiens, UniProt P54750+Q01064+Q14123); assay: Inhibition of N-terminal GST-tagged human PDE1 expressed in baculovirus infected sf9 cells using [3H]cAMP as substrate measured after 30 mins by scintillation proximity assay
# [3] = target: Cone cGMP-specific 3',5'-cyclic phosphodiesterase subunit alpha' (Homo sapiens, UniProt P51160); assay: Inhibition of N-terminal GST-tagged human PDE6C expressed in baculovirus infected sf9 cells using [3H]cGMP as substrate measured after 30 mins by scintillation proximity assay
# [4] = target: Dual 3',5'-cyclic-AMP and -GMP phosphodiesterase 11A (Homo sapiens, UniProt Q9HCR9); assay: Inhibition of N-terminal GST-tagged human PDE11A4 expressed in baculovirus infected sf9 cells using [3H]cGMP as substrate measured after 30 mins by scintillation proximity assay
# [5] = Tmax in Sprague-Dawley rat at 1 mg/kg, po measured up to 24 hrs by LC-MS/MS analysis; type: ADME, organism-based; conditions: in vivo
# [6] = Cmax in Sprague-Dawley rat at 1 mg/kg, po measured up to 24 hrs by LC-MS/MS analysis; type: ADME, organism-based; parameters: dose 1 mg/kg, route oral; conditions: in vivo
# [7] = AUC (0 to t) in Sprague-Dawley rat at 1 mg/kg, iv measured up to 24 hrs by LC-MS/MS analysis; type: ADME, organism-based; parameters: time < 24 hr, dose 1 mg/kg, route intravenous; conditions: in vivo
# [8] = AUC (0 to t) in Sprague-Dawley rat at 1 mg/kg, po measured up to 24 hrs by LC-MS/MS analysis; type: ADME, organism-based; parameters: time < 24 hr, dose 1 mg/kg, route oral; conditions: in vivo
# [9] = AUC (0 to infinity) in Sprague-Dawley rat at 1 mg/kg, iv measured up to 24 hrs by LC-MS/MS analysis; type: ADME, organism-based; parameters: dose 1 mg/kg, time infinity, route intravenous; conditions: in vivo
# [10] = AUC (0 to infinity) in Sprague-Dawley rat at 1 mg/kg, po measured up to 24 hrs by LC-MS/MS analysis; type: ADME, organism-based; parameters: dose 1 mg/kg, route oral, time infinity; conditions: in vivo
# [11] = MRT in Sprague-Dawley rat at 1 mg/kg, iv measured up to 24 hrs by LC-MS/MS analysis; type: ADME, organism-based; conditions: in vivo
# [12] = MRT in Sprague-Dawley rat at 1 mg/kg, po measured up to 24 hrs by LC-MS/MS analysis; type: ADME, organism-based; conditions: in vivo
# [13] = Half-life in Sprague-Dawley rat at 1 mg/kg, iv measured up to 24 hrs by LC-MS/MS analysis; type: ADME, organism-based; conditions: in vivo
# [14] = Half-life in Sprague-Dawley rat at 1 mg/kg, po measured up to 24 hrs by LC-MS/MS analysis; type: ADME, organism-based; conditions: in vivo
# [15] = Clearance in Sprague-Dawley rat at 1 mg/kg, iv measured up to 24 hrs by LC-MS/MS analysis; type: ADME, organism-based; conditions: in vivo
# [16] = Volume of distribution at steady state in Sprague-Dawley rat at 1 mg/kg, iv measured up to 24 hrs by LC-MS/MS analysis; type: ADME, organism-based; conditions: in vivo, read-out: Vdss
# [17] = Oral bioavailability in Sprague-Dawley rat at 1 mg/kg measured up to 24 hrs by LC-MS/MS analysis; type: ADME, organism-based; conditions: in vivo
# [18] = Tmax in Beagle dog at 0.5 mg/kg, po measured up to 24 hrs by LC-MS/MS analysis; type: ADME, organism-based, Canis lupus familiaris; conditions: in vivo
# [19] = Cmax in Beagle dog at 0.5 mg/kg, po measured up to 24 hrs by LC-MS/MS analysis; type: ADME, organism-based, Canis lupus familiaris; parameters: dose 0.5 mg/kg, route oral; conditions: in vivo
# [20] = AUC (0 to t) in Beagle dog at 0.5 mg/kg, iv measured up to 24 hrs by LC-MS/MS analysis; type: ADME, organism-based, Canis lupus familiaris; parameters: time < 24 hr, dose 0.5 mg/kg, route intravenous; conditions: in vivo
# [21] = AUC (0 to t) in Beagle dog at 0.5 mg/kg, po measured up to 24 hrs by LC-MS/MS analysis; type: ADME, organism-based, Canis lupus familiaris; parameters: time < 24 hr, dose 0.5 mg/kg, route oral; conditions: in vivo
# [22] = AUC (0 to infinity) in Beagle dog at 0.5 mg/kg, iv measured up to 24 hrs by LC-MS/MS analysis; type: ADME, organism-based, Canis lupus familiaris; parameters: dose 0.5 mg/kg, time infinity, route intravenous; conditions: in vivo
# [23] = AUC (0 to infinity) in Beagle dog at 0.5 mg/kg, po measured up to 24 hrs by LC-MS/MS analysis; type: ADME, organism-based, Canis lupus familiaris; parameters: dose 0.5 mg/kg, time infinity, route oral; conditions: in vivo
# [24] = MRT in Beagle dog at 0.5 mg/kg, iv measured up to 24 hrs by LC-MS/MS analysis; type: ADME, organism-based, Canis lupus familiaris; conditions: in vivo
# [25] = MRT in Beagle dog at 0.5 mg/kg, po measured up to 24 hrs by LC-MS/MS analysis; type: ADME, organism-based, Canis lupus familiaris; conditions: in vivo
# [26] = Half-life in Beagle dog at 0.5 mg/kg, iv measured up to 24 hrs by LC-MS/MS analysis; type: ADME, organism-based, Canis lupus familiaris; conditions: in vivo
# [27] = Half-life in Beagle dog at 0.5 mg/kg, po measured up to 24 hrs by LC-MS/MS analysis; type: ADME, organism-based, Canis lupus familiaris; conditions: in vivo
# [28] = Clearance in Beagle dog at 0.5 mg/kg, iv measured up to 24 hrs by LC-MS/MS analysis; type: ADME, organism-based, Canis lupus familiaris; conditions: in vivo
# [29] = Volume of distribution at steady state in Beagle dog at 0.5 mg/kg, iv measured up to 24 hrs by LC-MS/MS analysis; type: ADME, organism-based, Canis lupus familiaris; conditions: in vivo, read-out: Vdss
# [30] = Oral bioavailability Beagle dog at 0.5 mg/kg measured up to 24 hrs by LC-MS/MS analysis; type: ADME, organism-based, Canis lupus familiaris; conditions: in vivo
# [31] = Terminal half life in human at 5 mg, po administered once daily measured under phase 1 clinical trials; type: ADME, organism-based; conditions: in vivo, read-out: beta t1/2 (converted)
# Rattus norvegicus [32] = assay: Antihypertensive activity in spontaneously hypertensive rat assessed as reduction in mean arterial pressure at 20 mg/kg administered via single gavage and measured at 2 hrs; type: functional, organism-based
# Rattus norvegicus [33] = assay: Antihypertensive activity in spontaneously hypertensive rat assessed as reduction in mean arterial pressure at 20 mg/kg administered via single gavage and measured at 4 hrs; type: functional, organism-based
# Rattus norvegicus [34] = assay: […] activity in MCT-induced pulmonary arterial hypertension Sprague-Dawley rat model assessed as reduction in mean pulmonary artery pressure at 1 mg/kg administered once daily for 21 days starting from 21 days post-MCT challenge by right cardiac catheter method; type: functional, organism-based
# Rattus norvegicus [35] = assay: […] activity in MCT-induced pulmonary arterial hypertension Sprague-Dawley rat model assessed as reduction in mean pulmonary artery pressure at 25 mg/kg administered once daily for 21 days starting from 21 days post-MCT challenge by right cardiac catheter method; type: functional, organism-based
# Rattus norvegicus [36] = assay: […] activity in MCT-induced pulmonary arterial hypertension Sprague-Dawley rat model assessed as reduction in mean pulmonary artery pressure at 100 mg/kg administered once daily for 21 days starting from 21 days post-MCT challenge by right cardiac catheter method; type: functional, organism-based
# [37] = target: T1, cGMP-specific 3',5'-cyclic phosphodiesterase (Homo sapiens, UniProt O76074)
# [38] = target: T1, cGMP-specific 3',5'-cyclic phosphodiesterase; remark: listed apart in the source
# [39] = target: T1, cGMP-specific 3',5'-cyclic phosphodiesterase; remark: listed apart in the source
# [40] = target: T1, cGMP-specific 3',5'-cyclic phosphodiesterase; assay: Inhibition of N-terminal GST-tagged human PDE5A1 expressed in baculovirus infected sf9 cells using [3H]cGMP as substrate measured after 30 mins by scintillation proximity assay
# Sequence of Cone cGMP-specific 3',5'-cyclic phosphodiesterase subunit alpha' (P51160 whole entry): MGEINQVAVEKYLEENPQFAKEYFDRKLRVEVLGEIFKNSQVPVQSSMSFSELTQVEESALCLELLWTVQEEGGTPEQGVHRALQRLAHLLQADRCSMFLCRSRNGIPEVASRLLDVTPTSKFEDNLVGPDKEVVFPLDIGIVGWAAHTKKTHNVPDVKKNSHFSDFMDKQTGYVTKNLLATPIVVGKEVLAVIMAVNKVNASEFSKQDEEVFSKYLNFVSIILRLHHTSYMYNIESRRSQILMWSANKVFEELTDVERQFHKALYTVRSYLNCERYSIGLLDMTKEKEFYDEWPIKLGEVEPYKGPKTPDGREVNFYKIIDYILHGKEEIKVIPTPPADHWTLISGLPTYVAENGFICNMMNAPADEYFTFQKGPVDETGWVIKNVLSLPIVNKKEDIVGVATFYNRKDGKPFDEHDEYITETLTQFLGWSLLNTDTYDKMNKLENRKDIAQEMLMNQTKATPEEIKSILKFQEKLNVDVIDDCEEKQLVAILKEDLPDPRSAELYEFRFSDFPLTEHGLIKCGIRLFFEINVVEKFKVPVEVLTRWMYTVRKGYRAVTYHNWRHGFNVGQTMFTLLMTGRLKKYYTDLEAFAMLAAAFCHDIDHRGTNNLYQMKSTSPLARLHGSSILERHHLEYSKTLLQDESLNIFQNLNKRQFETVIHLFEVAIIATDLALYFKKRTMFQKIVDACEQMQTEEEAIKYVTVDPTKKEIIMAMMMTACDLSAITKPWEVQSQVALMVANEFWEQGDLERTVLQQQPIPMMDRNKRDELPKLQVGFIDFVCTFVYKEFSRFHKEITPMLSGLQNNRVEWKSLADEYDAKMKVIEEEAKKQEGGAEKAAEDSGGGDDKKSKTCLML
# Sequence of Dual 3',5'-cyclic-AMP and -GMP phosphodiesterase 11A (Q9HCR9 whole entry): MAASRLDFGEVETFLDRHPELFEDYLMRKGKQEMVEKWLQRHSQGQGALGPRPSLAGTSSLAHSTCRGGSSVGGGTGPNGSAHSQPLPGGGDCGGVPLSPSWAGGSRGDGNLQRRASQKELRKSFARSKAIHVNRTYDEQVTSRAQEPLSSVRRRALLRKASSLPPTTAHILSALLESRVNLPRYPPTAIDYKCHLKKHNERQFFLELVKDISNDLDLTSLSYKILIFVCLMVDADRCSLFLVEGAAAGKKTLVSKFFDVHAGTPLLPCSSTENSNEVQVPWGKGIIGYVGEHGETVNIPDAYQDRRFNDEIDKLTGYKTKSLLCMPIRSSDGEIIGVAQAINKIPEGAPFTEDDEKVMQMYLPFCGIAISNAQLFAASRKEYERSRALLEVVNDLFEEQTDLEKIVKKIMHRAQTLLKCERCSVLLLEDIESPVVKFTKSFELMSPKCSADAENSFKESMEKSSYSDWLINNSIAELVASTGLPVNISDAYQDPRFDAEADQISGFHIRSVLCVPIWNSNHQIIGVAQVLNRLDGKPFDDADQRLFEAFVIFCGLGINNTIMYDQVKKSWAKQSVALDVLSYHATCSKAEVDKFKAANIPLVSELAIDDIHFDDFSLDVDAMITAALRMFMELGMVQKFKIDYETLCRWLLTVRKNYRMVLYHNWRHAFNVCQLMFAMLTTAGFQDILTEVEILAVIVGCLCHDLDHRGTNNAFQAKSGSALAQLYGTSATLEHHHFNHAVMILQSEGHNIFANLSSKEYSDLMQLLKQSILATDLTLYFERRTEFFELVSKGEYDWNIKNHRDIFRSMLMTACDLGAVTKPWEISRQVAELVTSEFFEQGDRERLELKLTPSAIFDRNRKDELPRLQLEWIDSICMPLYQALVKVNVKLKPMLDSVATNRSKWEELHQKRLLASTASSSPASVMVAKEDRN
compound,measurement,setting,value
CCCOc1ccc(NC(=O)CC)cc1-c1nc(CC)c(CC)c(=O)[nH]1,Ratio IC50,Homo sapiens,11
CCCOc1ccc(NC(=O)C(N)=O)cc1-c1nc(CC)c(CC)c(=O)[nH]1,Ratio IC50,Homo sapiens,22
CCCOc1ccc(NC(=O)CN2CCN(C)CC2)cc1-c1nc(CC)c(CC)c(=O)[nH]1,Activity,Rattus norvegicus [1],Active
same,"remaining at 0.5 h, 1 µM",[2],91%
same,IC50,Phosphodiesterase 1,3640 nM
same,IC50,[3],19.8 nM
same,IC50,[4],998 nM
same,Tmax,[5],2.8 h
same,Cmax,[6],43.9 ng/mL
same,AUCt,[7],403 ng·h/mL
same,AUCt,[8],268 ng·h/mL
same,AUC,[9],412 ng·h/mL
same,AUC,[10],284 ng·h/mL
same,MRT,[11],2.22 h
same,MRT,[12],5.56 h
same,half-life,[13],2.4 h
same,half-life,[14],2.82 h
same,clearance,[15],37.7 mL/min/kg
same,Vd,[16],4.97 L/kg
same,bioavailability,[17],66.4%
same,Tmax,[18],1.9 h
same,Cmax,[19],66.5 ng/mL
same,AUCt,[20],752 ng·h/mL
same,AUCt,[21],495 ng·h/mL
same,AUC,[22],773 ng·h/mL
same,AUC,[23],514 ng·h/mL
same,MRT,[24],6.07 h
same,MRT,[25],7.21 h
same,half-life,[26],4.5 h
same,half-life,[27],4.89 h
same,clearance,[28],10.8 mL/min/kg
same,Vd,[29],3.83 L/kg
same,bioavailability,[30],67%
same,half-life,[31],10.9 h
same,Activity,Rattus norvegicus [32],Active
same,Activity,Rattus norvegicus [33],Active
same,Activity,Rattus norvegicus [34],Active
same,Activity,Rattus norvegicus [35],Active
same,Activity,Rattus norvegicus [36],Active
same,deltaG,[37],-9.81 kcal/mol
same,deltaH,[38],-21.5 kcal/mol
same,-TdeltaS,[39],11.7 kcal/mol
CCCOc1ccc(NC(=O)CN2CCCCC2)cc1-c1nc(CC)c(CC)c(=O)[nH]1,IC50,[40],1.46 nM
same,Ratio IC50,Homo sapiens,9
CCCOc1ccc(NS(C)(=O)=O)cc1-c1nc(CC)c(CC)c(=O)[nH]1,Ratio IC50,Homo sapiens,28
same,"remaining at 0.5 h, 1 µM",[2],27%
CCCOc1ccc(NC(=O)C2CCN(C)CC2)cc1-c1nc(CC)c(CC)c(=O)[nH]1,IC50,[40],0.79 nM
same,Ratio IC50,Homo sapiens,24
COc1ccccc1Oc1c(NS(=O)(=O)c2ccc(C(C)(C)C)cc2)nc(-c2ncccn2)nc1OCCO,Activity,Rattus norvegicus [34],Active
same,Activity,Rattus norvegicus [35],Active
same,Activity,Rattus norvegicus [36],Active
CCCOc1ccc(S(=O)(=O)N2CCN(C)CC2)cc1-c1nc(CC)c(CC)c(=O)[nH]1,"remaining at 0.5 h, 1 µM",[2],29%
CCCOc1ccc(N)cc1-c1nc(CC)c(CC)c(=O)[nH]1,IC50,[40],5.33 nM
same,Ratio IC50,Homo sapiens,10
CCCOc1ccc(S(=O)(=O)N(CCO)CCN2CCOCC2)cc1-c1nc(CC)c(CC)c(=O)[nH]1,Ratio IC50,Homo sapiens,10
